Measured values as given in patent publication US20030004172A1, “Fused pyrimidinone matrix metalloproteinase inhibitors” (priority 2001, published 2003).

Tests used:
[1] = molecular target: MMP-13CD (catalytic domain of collagenase-3) (Homo sapiens, UniProt P45452); assay: Thiopeptolide substrate hydrolysis inhibition assay, MMP-13CD; type: biochemical; conditions: Table I; thiopeptolide substrate, HEPES pH 7.0, 22° C.; read-out: MMP-13CD IC50
From the text: Thiopeptolide substrates show virtually no decomposition or hydrolysis at or below neutral pH in the absence of a matrix metalloproteinase enzyme.

| SMILES | IC50 [1] [µM] | melting point |
| --- | --- | --- |
| O=C(OCc1ccncc1)c1cc2c(=O)n(Cc3ccccc3)c(=O)[nH]c2s1 [Example 2, 3-Benzyl-2,4-dioxo-1,2,3,4-tetrahydro-thieno[2,3-d]pyrimidine-6-carboxylic acid pyridin-4-ylmethyl ester] | 0.31 | 248 to 250 °C |
| O=C(NCc1ccccc1)c1cc2c(=O)n(Cc3ccccc3)c(=O)[nH]c2s1 [Example 3, 3-Benzyl-2,4-dioxo-1,2,3,4-tetrahydro-thieno[2,3-d]pyrimidine-6-carboxylic acid benzyl amide] | 30 | > 255 °C |
| O=C(OCc1ccc(/C=C/c2ccccc2)cc1)c1cc2c(=O)n(Cc3ccccc3)c(=O)[nH]c2s1 [Example 4] | 16 | 247 to 249 °C |
| Cc1c(C(=O)OCc2ccccc2)sc2[nH]c(=O)n(CCc3ccccc3)c(=O)c12 [Example 5, 5-Methyl-2,4-dioxo-3-phenylethyl-1,2,3,4-tetrahydro-thieno[2,3-d]pyrimidine-6-carboxylic acid benzyl ester] | 51 | 207 to 209 °C |
| Cc1ccc(-n2c(=O)[nH]c3sc(C(=O)OCc4ccccc4)c(C)c3c2=O)cc1 [Example 7, 5-Methyl-2,4-dioxo-3-p-tolyl-1,2,3,4-tetrahydro-thieno[2,3-d]-6-carboxylic acid benzyl ester] | 10 | 267 to 269 °C |

Results, then the molecule that gave them:

| IC50 [1] [µM] | melting point | SMILES |
| --- | --- | --- |
| – | 143 to 145 °C | Cn1c(=O)n(Cc2ccccc2)c(=O)c2cc(C(=O)OCc3ccccc3)sc21 [Example 9, 3-Benzyl-1-methyl-2,4-dioxo-1,2,3,4-tetrahydro-thieno[2,3-d]pyrimidine-6-carboxylic acid benzyl ester] |
| > 100 | 147 to 148 °C | CCn1c(=O)n(Cc2ccccc2)c(=O)c2cc(C(=O)OCc3ccccc3)sc21 [Example 73, 3-Benzyl-1-ethyl-2,4-dioxo-1,2,3,4-tetrahydro-thieno[2,3-d]pyrimidine-6-carboxylic acid benzyl ester] |
| 0.061 | 226 to 228 °C (dec.) | COc1ccc(CNC(=O)c2cc3c(=O)n(Cc4ccc(/C(N)=N/O)cc4)c(=O)n(C)c3s2)cc1 [Example 220, 3-[4-(N-Hydroxycarbamimidoyl)-benzyl]-1-methyl-2,4-dioxo-1,2,3,4-tetrahydro-thieno[2,3-d]pyrimidine-6-carboxylic acid 4-methoxy-benzylamide] |
| – | 180 to 183 °C | COc1ccc(CNC(=O)c2cc3c(=O)n(CC#N)c(=O)n(C)c3s2)cc1 [Example 223, 3-Cyanomethyl-1-methyl-2,4-dioxo-1,2,3,4-tetrahydro-thieno[2,3-d]pyrimidine-6-carboxylic acid 4-methoxy-benzylamide] |
| 0.783 | 159 to 163 °C | COc1cccc(CNC(=O)c2cc3c(=O)n(CC#N)c(=O)n(C)c3s2)c1 [Example 224, 3-Cyanomethyl-1-methyl-2,4-dioxo-1,2,3,4-tetrahydro-thieno[2,3-d]pyrimidine-6-carboxylic acid 3-methoxy-benzylamide] |
| 0.225 | 169 to 171 °C | COC(=O)/C=C/Cn1c(=O)c2cc(C(=O)NCc3ccc(OC)cc3)sc2n(C)c1=O [Example 225, (E)-4-[6-(4-Methoxy-benzylcarbamoyl)-1-methyl-2,4-dioxo-1,4-dihydro-2H-thieno[2,3-d]pyrimidin-3-yl]-but-2-enoic acid methyl ester] |
